Results taken from the NIST ThermoML archive (doi:10.1016/j.jct.2005.03.015).
Numbers after ± are expanded uncertainties.

Test: mn = molality of the nth substance listed, in mol/kg
Details: 298.15 K, 101 kPa, Liquid

SMILES: N[C@@H](Cc1c[nH]cn1)C(=O)O [L-histidine] + O
- mass density (m1 = 0.02223): 998.29 ± 0.49 kg/m3
- mass density (m1 = 0.04995): 999.84 ± 0.48 kg/m3
- mass density (m1 = 0.07431): 1001.19 ± 0.49 kg/m3
- mass density (m1 = 0.099): 1002.56 ± 0.49 kg/m3
- mass density (m1 = 0.1232): 1003.87 ± 0.49 kg/m3
- mass density (m1 = 0.1428): 1004.92 ± 0.5 kg/m3
- mass density (m1 = 0.1834): 1007.13 ± 0.5 kg/m3
- mass density (m1 = 0.2013): 1008.08 ± 0.51 kg/m3

SMILES: C[C@@H](O)[C@H](N)C(=O)O [DL-threonine] + O
- mass density (m1 = 0.0246): 998.08 ± 0.49 kg/m3
- mass density (m1 = 0.0494): 999.12 ± 0.48 kg/m3
- mass density (m1 = 0.07575): 1000.22 ± 0.48 kg/m3
- mass density (m1 = 0.1002): 1001.23 ± 0.48 kg/m3
- mass density (m1 = 0.1256): 1002.28 ± 0.49 kg/m3
- mass density (m1 = 0.1499): 1003.28 ± 0.49 kg/m3
- mass density (m1 = 0.1751): 1004.31 ± 0.49 kg/m3
- mass density (m1 = 0.2001): 1005.33 ± 0.5 kg/m3

SMILES: NC(CO)C(=O)O (stereo not drawn) [(.+-.)-serine] + O
- mass density (m1 = 0.02628): 998.22 ± 0.49 kg/m3
- mass density (m1 = 0.04948): 999.26 ± 0.48 kg/m3
- mass density (m1 = 0.07419): 1000.35 ± 0.48 kg/m3
- mass density (m1 = 0.1008): 1001.52 ± 0.49 kg/m3
- mass density (m1 = 0.1252): 1002.6 ± 0.49 kg/m3
- mass density (m1 = 0.1509): 1003.72 ± 0.49 kg/m3
- mass density (m1 = 0.1753): 1004.76 ± 0.5 kg/m3
- mass density (m1 = 0.2009): 1005.86 ± 0.5 kg/m3

SMILES: NCC(=O)NCC(=O)O [glycylglycine] + O
- mass density (m1 = 0.02426): 998.39 ± 0.49 kg/m3
- mass density (m1 = 0.05026): 999.84 ± 0.48 kg/m3
- mass density (m1 = 0.07538): 1001.22 ± 0.49 kg/m3
- mass density (m1 = 0.0999): 1002.54 ± 0.49 kg/m3
- mass density (m1 = 0.1253): 1003.95 ± 0.49 kg/m3
- mass density (m1 = 0.1482): 1005.2 ± 0.5 kg/m3
- mass density (m1 = 0.1746): 1006.63 ± 0.5 kg/m3
- mass density (m1 = 0.1974): 1007.84 ± 0.51 kg/m3

SMILES: NCC(=O)O [2-aminoacetic acid] + O
- mass density (m1 = 0.0988): 1000.19 ± 0.48 kg/m3
- mass density (m1 = 0.1509): 1001.82 ± 0.49 kg/m3
- mass density (m1 = 0.2033): 1003.44 ± 0.49 kg/m3
- mass density (m1 = 0.2463): 1004.78 ± 0.49 kg/m3
- mass density (m1 = 0.2996): 1006.4 ± 0.5 kg/m3
- mass density (m1 = 0.3513): 1007.96 ± 0.5 kg/m3
- mass density (m1 = 0.4037): 1009.55 ± 0.51 kg/m3
- mass density (m1 = 0.4497): 1010.94 ± 0.51 kg/m3

SMILES: C[C@H](N)C(=O)O [(S)-2-aminopropanoic acid] + O
- mass density (m1 = 0.1065): 1000.07 ± 0.48 kg/m3
- mass density (m1 = 0.1518): 1001.34 ± 0.48 kg/m3
- mass density (m1 = 0.2006): 1002.71 ± 0.49 kg/m3
- mass density (m1 = 0.2568): 1004.27 ± 0.49 kg/m3
- mass density (m1 = 0.3059): 1005.52 ± 0.5 kg/m3
- mass density (m1 = 0.359): 1007.03 ± 0.5 kg/m3
- mass density (m1 = 0.4066): 1008.35 ± 0.5 kg/m3
- mass density (m1 = 0.4555): 1009.54 ± 0.51 kg/m3
